Key:
Type in all cases: cell-based
A375 = assay: PLX4720 and MAPK inhibitor sensitivity of ORF-expressing A375 (secondary screen); conditions: for effect of ectopic GEF expression on sensitivity to the inhibitor: A375 transfected with GEF ORFS; for sensitivity of A375 to the inhibitor: parental A375 cell line
Experimental: A375 (1.5×10^3) and SKMEL28 cells (3×10^3) were seeded in 96-well plates for 18 h. ORF-expressing lentivirus was added at a 1:10 dilution in the presence of 8 μg/ml polybrene, and centrifuged at 2250 RPM and 37° C. for 1 h. Following centrifugation, virus-containing media was changed to normal growth media and allowed to incubate for 18 h. Twenty-four hours after infection, DMSO (1:1000) or 10× PLX4720 (in DMSO) was added to a final concentration of 100, 10, 1, 0.1, 0.01, 0.001, 0.0001 or 0.00001 μM. Cell viability was assayed using WST-1 (Roche), per manufacturer recommendation, 4 days after the addition of PLX4720.
Cultured cells were seeded into 96-well plates (3,000 cells per well) for all melanoma cell lines; 1,500 cells were seeded for A375. Twenty-four hours after seeding, serial dilutions of the relevant compound were prepared in DMSO added to cells, yielding final drug concentrations ranging from 100 μM to […], with the final volume of DMSO not exceeding 1%. Cells were incubated for 96 h following addition of drug. Cell viability was measured using the WST1 viability assay (Roche). Viability was calculated as a percentage of control (untreated cells) after background subtraction. A minimum of six replicates were performed for each cell line and drug combination. Data from growth-inhibition assays were modeled using a nonlinear regression curve fit with a sigmoid dose-response. […] Sigmoid-response curves that crossed the 50% inhibition point at or above 10 μM have GI50 values annotated as >10 μM. For single-dose studies, the identical protocol was followed, using a single dose of indicated drug (1 μM unless otherwise noted).

WM266.4 [1] = assay: Single-dose cell viability of forskolin-treated cells with MAPK-pathway and HDAC inhibitors; conditions: sub-lethal doses; Panobinostat 10 nM, Vorinostat 1.5 μM, Entinostat 1.5 μM; 96 hrs
Experimental: Twenty-four hours after seeding, serial dilutions of the relevant compound were prepared in DMSO to 1000× stocks. Drug stocks were then diluted 1:100 into appropriate growth media and added to cells at a dilution of 1:10 (lx final), yielding drug concentrations ranging from 100 μM to 1×10-5 μM, with the final volume of DMSO not exceeding 1%. When indicated, forskolin (10 μM), IBMX (100 μM), dbcAMP (100 μM) were added concurrent with MAPK-pathway inhibitors. Cells were incubated for 96 h following addition of drug. Cell viability was measured using CellTiterGlo viability assay (Promega). Viability was calculated as a percentage of control (DMSO treated cells). A minimum of six replicates were performed for each cell line and drug combination. Data from growth-inhibition assays were modeled using a nonlinear regression curve fit with a sigmoid dose-response. […] For single-dose studies, WM266.4 were seeded at 5,000 cells/well in 96-well, white-walled, clear bottom plates and the identical protocol (above) was followed, using a single dose of indicated drug.

WM266.4 [2] = assay: Immunoblots of MITF, SOX10, acetylated histone H3 and other proteins in melanoma cells; conditions: for acetylated histone H3: WM266.4, 18 hours; for SOX10 and MITF expression: WM266.4, independent of ERK phosphorylation
Experimental: (§1) Adherent cells were washed once with ice-cold PBS and lysed passively with 1% NP-40 buffer [150 mM NaCl, 50 mM Tris pH 7.5, 2 mM EDTA pH 8, 25 mM NaF and 1% NP-40] containing 2× protease inhibitors (Roche) and 1× Phosphatase Inhibitor Cocktails I and II (CalBioChem). Lysates were quantified (Bradford assay), normalized, reduced, denatured (95° C.) and resolved by SDS gel electrophoresis on 4-20% Tris/Glycine gels (Invitrogen). […] After incubation with the appropriate secondary antibody (anti-rabbit, anti-mouse or anti-goat IgG, IRDye-linked; 1:15,000 dilution; IRDye 800CW, 1:20,000 IRDye 680LT, LiCOR), proteins were imaged using an Odyssey CLx scanner (LiCOR).

WM266.4 [3] = assay: Western blot of CREB and ERK phosphorylation; conditions: WM266.4, 1 hr treatment
Experimental: as §1

WM266.4 [4] = assay: Quantitative RT/PCR of MITF, FOS, NR4A1 and NR4A2 mRNA; conditions: within 1 hour of treatment, absence of MEK inhibitor
Experimental: mRNA was extracted from WM266.4 using the RNeasy kit (Qiagen) and homogenized using the Qiashredder kit (Qiagen). Total mRNA was used for subsequent reverse transcription using the SuperScript III First-Strand Synthesis SuperMix (Invitrogen). 5 μl of reverse-transcribed cDNA was used for quantitative PCR using SYBR Green PCR Master Mix and gene-specific primers, in quadruplicate, using an ABI PRISM 7900 Real Time PCR System. Primers used for detection were as follows; NR4A2 forward: 5′-GTTCAGGCGCAGTATGGGTC-3′ (SEQ ID NO: 7); NR4A2 reverse: 5′-AGAGTGGTAACTGTAGCTCTGAG-3′ (SEQ ID NO: 8); NR4A1 forward: 5′-ATG CCC TGT ATC CAA GCC C-3′ (SEQ ID NO: 9); NR4A1 reverse: 5′-GTGTAGCCGTCCATGAAGGT-3′ (SEQ ID NO: 10); DUSP6 forward: 5′-CTG CCG GGC GTT CTA CCT-3′ (SEQ ID NO: 11); DUSP6 reverse: 5′-CCAGCCAAGCAATGTACCAAG-3′ (SEQ ID NO: 12); MITF forward: 5′-TGC CCA GGC ATG AAC ACA C-3′ (SEQ ID NO: 13); MITF reverse: 5′-TGGGAAAAATACACGCTGTGAG-3′ (SEQ ID NO: 14); FOS forward: 5′-CACTCCAAGCGGAGACAGAC-3′ (SEQ ID NO: 15); FOS reverse: 5′-AGGTCATCAGGGATCTTGCAG-3′ (SEQ ID NO: 16); TBP forward: 5′-CCCGAAACGCCGAATATAATCC-3′ (SEQ ID No: 17); TBP reverse: 5′-GACTGTTCTTCACTCTTGGCTC-3′ (SEQ ID NO: 18). Relative expression was determined using the comparative CT method (Applied Biosystems).

## Cn1cnc2c(F)c(Nc3ccc(Br)cc3Cl)c(C(=O)NOCCO)cc21 [AZD6244]
A375
  effect of ectopic GEF expression on sensitivity to the inhibitor: decreased sensitivity
  sensitivity of A375 to the inhibitor: sensitive

## Nc1ccccc1NC(=O)c1ccc(CNC(=O)OCc2cccnc2)cc1 [Entinostat]
WM266.4 [1]
  sensitivity of forskolin-treated cells to MAPK-pathway inhibitors: restored sensitivity to MAPK-pathway inhibitors to levels approaching parental cells

## O=S(=O)(NCCNC/C=C/c1ccc(Br)cc1)c1cccc2cnccc12 [H89]
WM266.4 [2]; WM266.4, 10 μM H89 pre-treatment
  effect on forskolin-mediated rescue of MITF protein expression: largely abrogated

## Cc1[nH]c2ccccc2c1CCNCc1ccc(/C=C/C(=O)NO)cc1 [Panobinostat]
WM266.4 [1]
  sensitivity of forskolin-treated cells to MAPK-pathway inhibitors: restored sensitivity to MAPK-pathway inhibitors to levels approaching parental cells
WM266.4 [2]
  acetylated histone H3: increases
  SOX10 and MITF expression: reduction

## Cc1cnc(Nc2ccc(F)cc2Cl)nc1-c1c[nH]c(C(=O)N[C@H](CO)c2cccc(Cl)c2)c1 [VTX-11E]
A375
  effect of ectopic GEF expression on sensitivity to the inhibitor: decreased sensitivity
  sensitivity of A375 to the inhibitor: sensitive

## O=C(CCCCCCC(=O)Nc1ccccc1)NO [Vorinostat]
WM266.4 [2]
  acetylated histone H3: increases
  SOX10 and MITF expression: reduction

## C=C[C@@]1(C)CC(=O)[C@]2(O)[C@@]3(C)[C@@H](O)CCC(C)(C)[C@@H]3[C@H](O)[C@H](OC(C)=O)[C@@]2(C)O1 [forskolin]
WM266.4 [3]
  ERK phosphorylation: no effect
WM266.4 [4]
  increases in mRNA expression of MITF, FOS, NR4A1 and NR4A2: 2- to 20 fold

Reference: patent US20150141470A1, “DIAGNOSTIC AND TREATMENT METHODS IN PATIENTS HAVING OR AT RISK OF DEVELOPING RESISTANCE TO CANCER THERAPY” (The Broad Institute, Inc., priority 2012, published 2015)
